Assay results: PMC7076013 (Scientific Reports, 2020)

Columns and labels:
A375, human melanoma = test: MTT cell viability, A375; format: cell-based; details: 48 h, MTT or CV
Procedure: Both melanoma and colon cancer are tumor types tightly connected with inflammation, while the expression of COX-2 in the selected cell lines was highly variable. Since a lot of discrepancies were found in the literature concerning the expression of this enzyme[5],[48]–[53], both COX-1 and COX-2 expression was analyzed by Western blot. […] The cells were treated with a wide range of doses of 4a–c, 5, and 6 for 48 h and cell viability was determined by MTT (3-(4,5-dimethylthiazol-2-yl)-2,5-diphenyltetrazolium bromide) and CV (crystal violet) assays. The obtained IC50 values were similar for both assays (Table 1).
Reagents were obtained from Sigma (St. Louis, MO) unless indicated otherwise. Annexin V - FITC (AnnV) was acquired from Biotium (Hayward, CA) and Apostat from R&D (R&D S ystems, Minneapolis, MN USA). […] After being detached b y tr ypsinization, cells were seeded in defined number as follows: 2.5 × 10^3 cells/well in 96-well plates for viability assessment and 2 × 10^4 cells/well in 24-well plates for flow cytometry. […]
Committee at IBISS (02- 09/1 6). Cells were counted and seeded in 96-well plates and incubat ed overnight. Before treatment, non- adherent cells were removed. Compounds 4a- c, 5 and 6 were dissolved in DMSO and stored at −20 °C for a m onth. Working solutions were freshl y prepared in 10% FCS-RPMI-1640. Controls were treated with culture medium containing the equivalent […]
3.2. Cell viability tests.
The number of viable cel ls in culture was estimated by the MTT (3-(4,5- dimethylthiazol- 2-yl ) - 2,5- diphenyltetrazolium bromide) and CV (crystal violet) tests. Cells were incubated in the presence of compounds 4a- c, 5 and 6 for 48 h, then the viability was measured as described.4 […]
The results were ex pressed as a p er centage of a v alue obtained for the untr eated control cells that was arbitrarily set to be 100%. A non- linear regression analysis of obtained results was done b y using Gr aphPad Prism software to calculat e IC50 values. […]

[1] = tested on: COX-2-overexpressing (HCA-7) human colon cancer cell line; details: cited from earlier work
[2] = tested on: COX-2-negative (HCT-116) human colon cancer cell line; details: cited from earlier work

**Q.** With CS(=O)(=O)c1ccc(C2=C(c3ccccc3)C(=O)OC2)cc1 [Rofecoxib] as the compound, how does the “viability of A375 cells” value (A375, human melanoma) read?
**A.** did not result in significantly decreased viability

**Q.** What about the “activity against HCA-7” value [1] of the same compound?
**A.** inactive

**Q.** What about the “activity against HCT-116” value [2] of the same compound?
**A.** inactive
